The values below come from patent US4542140A, “Pyridinyl substituted ketenemercaptal derivatives” (American Home Products Corporation, priority 1983, dated 1985).

Assay [1] concerns spontaneous gastric acid secretion. The assay is described as follows: inhibition of spontaneous gastric acid secretion in cannulated rats. The format is in vivo, Male albino Sprague Dawley rats. The protocol: Male albino Sprague Dawley rats (200-300 g), purchased from Canadian Breeding Laboratories, were employed. Two gastric cannulas were implanted surgically in each rat as described by L. E. Borella and F. Herr, Gastroenterology, 61, 345 (1971). The rats were used two to three weeks after the operation at a time when their food intake and weight gain were similar to the food intake and weight gain of unoperated litter mates. Before testing, the rats were deprived of food for 18 hours, but they had available a solution of 0.2% sodium chloride in 5% glucose for drinking ad libitum. Prior to each experiment, the plugs of the stomach cannulas of each rat were removed and the debris present in the stomach was flushed out with tepid saline passed through the cannulas. Thereafter, the lumen of the stomach was continuously perfused with saline introduced into the stomach through the forestomach cannula at a rate of 0.8-1.2 ml/min. The stomach perfusate flowing out of the antrum cannula was collected in 60 minutes intervals and the total acid in each collection was titrated with 0.05N sodium hydroxide employing phenol red as an indicator. After a period of acclimatization of about 60 to 90 minutes, the acid output values were recorded. On the basis of the hourly acid output, the rats were divided into equal groups so that the average acid output of all groups was similar. Saline (vehicle) or saline suspensions or solutions of the test compounds were administered intragastrically (i.g.) through the forestomach cannula, after having closed the antral cannula. During the one hour absorption period, the stomachs of the rats were not perfused. After the absorption period, perfusion of the stomachs was resumed, and the perfusates were collected hourly for three hours. The average post-treatment hourly acid outputs of the test compound groups were compared to that of the saline group and the percent inhibition of acid output was calculated. Multiple statistical comparisons between groups was done using Dunnet's t test, C. W. Dunnet, Journal of American Statistical Association, 50, 1096 (1955).

Assay [2] deals with gastric lesions induced by absolute alcohol. Kind of assay: gastric lesions induced in rats by absolute alcohol. The format is in vivo, male albino rats (Sprague-Dawley). The settings on record: i.g., 30 minutes before absolute ethanol. The protocol: More explicitly exemplified, the beneficial effects were evaluated as follows: food was withheld from male albino rats (180-220 g, Sprague-Dawley, Canadian Breeding Laboratories) for 18 to 19 hours, but water was freely available. Test compounds were administered intragastrically (i.g.) by stomach gavage, 30 minutes before absolute ethanol. The absolute ethanol (one milliliter) also was administered by gavage. One hour after the alcohol treatment, the rats were killed and their stomachs removed for observation. Clotted blood was removed from the surface of the mucosa, and the macroscopic lesions counted. The average scores of the treatment groups were compared individually to that of the control group and percent inhibitions of lesion formation calculated. The data was analyzed statistically according to Dunnett's t test for multiple comparisons between groups.
The results obtained when 2-cyano-3-(methylthio)-3-[[3-pyridinyl)-methyl]thio]-2-propenoic acid methyl ester, described in example 1, was tested according to the previous method is as follows.

The mark [3] stands for this setting: 50 mg/kg/i.g., tested as hydrochloric acid addition salt.

For the molecule `COC(=O)C(C#N)=C(SCc1cccnc1)SCc1cccnc1` [1 (R^2 = 3-pyridinylmethyl thio), 2-cyano-3,3-bis[[(3-pyridinyl)methyl]thio]-2-propenoic acid methyl ester], the “Percent Inhibition of Acid Output” value in assay [1] (25 mg/kg/i.g.) worked out at 38%. Regarding `COC(=O)C(C#N)=C(SC)SCc1cccnc1` [Example 1, 2-Cyano-3-(methylthio)-3-[[(3-pyridinyl)methyl]thio]-2-propenoic Acid Methyl Ester], the “Percent Inhibition of Acid Output” value in assay [1] (25 mg/kg/i.g.) is recorded as 85%. In assay [2] (5 mg/kg), the “Gastric Ulcers Formed, % Inhibition” value was determined as 61% and the “Gastric Ulcers Formed, Score (mean ± S.E.)” value was 6.7 ± 2.2. For the same molecule, in assay [2] (10 mg/kg), the “Gastric Ulcers Formed, % Inhibition” value was 100% and the “Gastric Ulcers Formed, Score (mean ± S.E.)” value is 0. For `COC(=O)C(C#N)=C(SC)SCc1ccc[n+]([O-])c1` [Example 2, 2-Cyano-3-(methylthio)-3-[[(3-pyridinyl)methyl]thio]-2-propenoic Acid Methyl Ester N-oxide], the “Percent Inhibition of Acid Output” value in assay [1] (25 mg/kg/i.g.) is recorded as 60%. `COC(=O)C(C#N)=C(SC)Sc1ccnnc1C` [Example 3, 2-cyano-3-[(3-methyl-4-pyridazinyl)thio]-3-(methylthio)-2-propenoic acid methyl ester]: the “Percent Inhibition of Acid Output” value in assay [1] (setting [3]) was determined as 90%. On the same count and under the same terms, the same measure for `COC(=O)C(C#N)=C(SC)SCc1cnccn1` [Example 4, 2-cyano-3-(methylthio)-3-[[(3-pyrazinyl)methyl]-thio]-2-propenoic acid methyl ester]: 88%. Regarding `CSC(SCc1cccnc1)=C(C#N)C(N)=O` [Example 12, 2-Cyano-3-(methylthio)-3-[[(3-pyridinyl)methyl]thio]-2-propenamide], in assay [1] (25 mg/kg/i.g.), the “Percent Inhibition of Acid Output” value amounted to 27%. Consider `CSC(SCc1ccncc1)=C(C#N)C(N)=O` [Example 13, 2-Cyano-3-(methylthio)-3-[[(4-pyridinyl)methyl]thio]-2-propenamide], for which the “Percent Inhibition of Acid Output” value in assay [1] (50 mg/kg/i.g.) was found to be 59%.
